Test results taken from article PMC6171243, “Suppression of lung cancer progression by isoliquiritigenin through its metabolite 2, 4, 2’, 4’-Tetrahydroxychalcone” (Journal of Experimental & Clinical Cancer Research : CR, 2018).

Target: Src (Homo sapiens, UniProt P12931)
Assay: cell-free ADP-Glo Src kinase assay (Promega)
Assay type: biochemical

Src, sequence (P12931 2-536): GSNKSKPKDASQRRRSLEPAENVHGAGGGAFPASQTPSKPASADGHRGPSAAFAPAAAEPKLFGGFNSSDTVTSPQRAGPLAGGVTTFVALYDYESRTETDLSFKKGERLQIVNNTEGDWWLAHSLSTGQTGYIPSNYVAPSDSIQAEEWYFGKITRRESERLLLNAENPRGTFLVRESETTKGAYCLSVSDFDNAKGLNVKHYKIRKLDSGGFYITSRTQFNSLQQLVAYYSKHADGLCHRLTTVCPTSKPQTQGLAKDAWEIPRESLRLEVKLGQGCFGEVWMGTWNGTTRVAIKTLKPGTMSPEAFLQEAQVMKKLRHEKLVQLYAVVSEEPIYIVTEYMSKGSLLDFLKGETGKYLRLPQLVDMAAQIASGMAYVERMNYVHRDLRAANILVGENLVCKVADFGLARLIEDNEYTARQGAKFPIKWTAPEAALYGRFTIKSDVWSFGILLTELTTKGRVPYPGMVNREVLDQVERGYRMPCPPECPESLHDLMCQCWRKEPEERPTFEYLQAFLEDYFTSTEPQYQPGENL

With `O=C(/C=C/c1ccc(O)cc1O)c1ccc(O)cc1O` [THC, 2,4, 2′, 4′-tetrahydroxychalcone] the IC50 was 1440 nM.
